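Each compound was tested at five concentrations against cells in 96-well plates for 48 hours. TGI is the concentration that stops growth completely.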
How the values were obtained:
Assay in all cases: NCI-60 cell line screen, 48 h
[1] = tested on: A498 renal
[2] = tested on: A549 NSCLC
[3] = tested on: CCRF-CEM leukemia
[4] = tested on: HCT-15 colon
[5] = tested on: IGROV1 ovarian
[6] = tested on: M14 melanoma
[7] = tested on: NCI-H23 lung
[8] = tested on: OVCAR-8 ovarian
[9] = tested on: SF-539 CNS
[10] = tested on: SNB-75 CNS
[11] = tested on: SR leukemia
[12] = tested on: SW-620 colon
[13] = tested on: UACC-257 melanoma

| SMILES | TGI [1] | TGI [2] | TGI [3] | TGI [4] | TGI [5] | TGI [6] | TGI [7] | TGI [8] | TGI [9] | TGI [10] | TGI [11] | TGI [12] | TGI [13] |
| --- | --- | --- | --- | --- | --- | --- | --- | --- | --- | --- | --- | --- | --- |
| C[C@]12C[C@@H](OC(=O)[C@]1(C)O)[C@@H]([C@]1(O)CC[C@H]3[C@@H]4C[C@H]5O[C@]56C[C@H]5O[C@H]5C(=O)[C@]6(C)[C@H]4CC[C@@]31C)C2 | > 50 µM | > 50 µM | > 50 µM | > 50 µM | > 50 µM | > 50 µM | > 50 µM | > 50 µM | > 50 µM | > 50 µM | > 50 µM | > 50 µM | > 50 µM |
| c1cnc2c(c1)ccc1cccnc12 | > 100 µM | > 100 µM | 5.5 µM | > 100 µM | > 100 µM | > 26.9 µM | > 100 µM | > 100 µM | > 100 µM | > 39.7 µM | 4.26 µM | > 100 µM | > 31.5 µM |
| Cc1cn(CCCCC2=NCCCN2)c(=O)[nH]c1=O | > 49.4 µM | > 54.4 µM | > 23 µM | > 47.2 µM | > 33.8 µM | > 32.4 µM | > 44.3 µM | > 28.2 µM | > 22 µM | > 28.6 µM | > 41 µM | > 37 µM | > 33.9 µM |
| COC(=O)/C=C(\CC(=O)OC)n1nnnc1[C@@H]1C[C@H](COC(c2ccccc2)(c2ccccc2)c2ccccc2)[C@H]2OC(C)(C)O[C@H]21 | > 100 µM | > 100 µM | > 100 µM |  | > 100 µM | > 100 µM |  | > 100 µM | > 100 µM | > 100 µM | > 100 µM | > 100 µM | > 100 µM |
| NC(=O)C(=CNC(=S)Nc1ccccc1)C(N)=O | > 100 µM | > 100 µM | > 100 µM | > 100 µM | > 100 µM | > 100 µM | > 100 µM | > 100 µM | > 100 µM | > 100 µM | > 100 µM | > 100 µM | > 100 µM |
| CC1=NC(=Cc2ccccc2O)C(=O)N1n1c(-c2ccccc2)nc2ccccc2c1=O | > 100 µM | > 100 µM | > 100 µM | > 100 µM | > 100 µM | > 100 µM | > 100 µM | > 100 µM | 87.3 µM | > 100 µM | > 100 µM | > 100 µM | > 100 µM |
| COc1ccc(Oc2cccc(C3C4C(=O)N(c5ccc(C)c(Cl)c5)C(=O)C4ON3C(C(N)=O)c3ccccc3)c2)cc1 (configuration not stated) | > 50 µM | > 50 µM | > 50 µM | 25.9 µM | > 50 µM | > 50 µM | 20.2 µM | > 50 µM | 21.8 µM | 26.2 µM | 35.6 µM | > 50 µM | 29.3 µM |
| CC1CN=C(N(Cc2ccccc2)C(=O)Nc2ccc(Cl)c(Cl)c2)S1 (configuration not stated) | > 100 µM | > 100 µM | > 10 µM | > 100 µM | > 100 µM | 48.8 µM | > 100 µM | > 100 µM | > 100 µM | > 100 µM | > 100 µM | > 100 µM | > 100 µM |
| O=c1c2cc(S(=O)(=O)O)ccc2nc(COc2ccc(Oc3ccc(Cl)cc3Cl)cc2)n1-c1ccc(Oc2ccc(Cl)cc2)cc1Cl | 57 µM | 40.6 µM | > 100 µM | 43.8 µM | 66.2 µM | 39.9 µM | 43 µM | 44.3 µM | 32.3 µM | 50.1 µM | 46.5 µM | 50.4 µM | 57.4 µM |
| O=C(/C=C/c1ccc(Oc2cc(C(=O)/C=C/c3ccc(O)cc3)c(O)cc2O)cc1)c1ccc(O)cc1O | 14.1 µM | 99.5 µM | 10.8 µM | 19.4 µM | 11.3 µM | 24.1 µM | 28.6 µM | 6.09 µM | 6.1 µM | 9.68 µM | > 100 µM | 19.8 µM | 28.4 µM |
| c1ccc2oc(-c3ccc(-c4nc5ccccc5o4)c4c3CC4)nc2c1 | > 100 µM | > 100 µM | > 100 µM | > 100 µM | > 100 µM | > 100 µM | > 100 µM | > 100 µM | > 100 µM | > 100 µM | > 100 µM | > 100 µM | > 100 µM |
| CCOC(=O)C(C(=O)OCC)=C1NC2(c3ccccc3Nc3ccccc32)C(C#N)S1 (configuration not stated) | 29.2 µM | 20.9 µM | > 100 µM | 19.6 µM | 25.6 µM | 19.8 µM | 16 µM | 30 µM | 23 µM | 53.2 µM | 6.81 µM | 51.6 µM | 36 µM |
| O=C(/C=C/c1ccccc1)Oc1ccc(C(=O)/C=C/c2ccc(Cl)cc2)cc1 | > 100 µM | > 100 µM | > 100 µM |  | > 100 µM | > 100 µM |  | > 100 µM | > 100 µM | > 100 µM | > 100 µM | > 100 µM | > 100 µM |
| CCOC(=O)N1N=C(/C(C)=N/OC)C(C)S1=O (configuration not stated) | > 100 µM | > 100 µM | > 100 µM | > 100 µM | > 100 µM | > 100 µM | > 100 µM | > 100 µM | > 100 µM | > 100 µM | > 100 µM | > 100 µM | > 100 µM |
| Nc1ncnc2oc(C3OC(COC(=O)c4ccccc4)C(OC(=O)c4ccccc4)C3OC(=O)c3ccccc3)nc12 (configuration not stated) | 82.6 µM | > 100 µM | > 100 µM | > 100 µM | > 100 µM | > 100 µM | > 100 µM | > 100 µM | > 100 µM | > 100 µM | > 100 µM | > 100 µM | > 100 µM |
| C[N+](C)(C)c1ncnc2c1ncn2C1CC(O)C(CO)O1 (configuration not stated) | > 100 µM | > 100 µM | > 100 µM | > 100 µM | > 100 µM | > 100 µM | > 100 µM | > 100 µM | > 100 µM | > 100 µM | > 100 µM | > 100 µM | > 100 µM |
| CC(N)Cc1ccc(Cl)c(Cl)c1 (configuration not stated) | > 90.6 µM | > 100 µM | > 78.1 µM | 84.9 µM | > 100 µM | 33.9 µM | > 100 µM | > 100 µM | > 60.2 µM | > 92.3 µM | 48.1 µM | 51.8 µM | 54.9 µM |

From PubChem BioAssay (NCI)
